Laboratory results: ChEMBL document CHEMBL1201862, “PubChem BioAssay data set” (2004)
Active and inactive are the calls of the source.

Tests used:
[1] = biological target: T1, Sentrin-specific protease 1 (Homo sapiens, UniProt Q9P0U3); assay: Dose response confirmation of small molecule inhibitors of the catalytic domain of the SUMO protease, SENP1 in a FRET assay.; assay type: functional; conditions: read-out: IC50_Mean
T1 sequence (Q9P0U3 whole entry): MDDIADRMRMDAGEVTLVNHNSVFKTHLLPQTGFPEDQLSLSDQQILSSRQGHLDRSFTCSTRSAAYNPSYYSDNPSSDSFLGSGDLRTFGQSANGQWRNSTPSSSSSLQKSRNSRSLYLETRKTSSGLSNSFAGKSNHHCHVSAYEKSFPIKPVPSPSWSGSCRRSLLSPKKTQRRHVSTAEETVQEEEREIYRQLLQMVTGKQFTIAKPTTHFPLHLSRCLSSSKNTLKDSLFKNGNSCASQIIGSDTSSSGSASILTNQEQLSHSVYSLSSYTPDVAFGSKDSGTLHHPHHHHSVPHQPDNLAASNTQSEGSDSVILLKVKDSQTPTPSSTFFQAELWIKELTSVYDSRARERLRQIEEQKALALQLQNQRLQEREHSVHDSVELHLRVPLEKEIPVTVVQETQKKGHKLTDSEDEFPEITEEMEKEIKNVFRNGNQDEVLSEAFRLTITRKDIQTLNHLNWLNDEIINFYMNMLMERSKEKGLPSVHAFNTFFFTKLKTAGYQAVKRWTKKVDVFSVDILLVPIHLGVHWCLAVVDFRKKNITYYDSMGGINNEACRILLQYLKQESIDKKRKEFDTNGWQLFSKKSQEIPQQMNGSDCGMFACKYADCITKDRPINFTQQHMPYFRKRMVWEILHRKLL

[2] = biological target: T1, Sentrin-specific protease 1; assay: SENP1 catalytic domain blockers, concentration series – biochemical, kinetic FRET, dose response (AID 651697); assay type: functional; conditions: read-out: IC50_Mean
[3] = off-target signal loss in HeLa-CEM21 co-culture – HeLa F-luc CTL cells, cherry-picked, counter-screen for HIV-1 Env fusion inhibitor project, dose response (AID 652040); assay type: functional, cell-based;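 also: potency for signal decrease marking cytotoxic or nonspecific inhibition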
[4] = viability loss in CEM21 cells – cell-based, CellTiter-Glo luminescence, cherry-picked, cytotoxicity control for viral fusion inhibitor project, dose response (AID 652042); assay type: functional;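 also: potency for signal decrease meaning cytotoxicity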
[5] = blockers of HIV-1 envelope-mediated cell-cell fusion – cherry-pick, dose response (AID 652057); assay type: functional, cell-based
[6] = Luminescence Cell-Based Dose Retest to Confirm Inhibitors of Cancer Stem Cells. [Related pubchem assays (depositor defined):AID2717, AID2721]; assay type: functional; conditions: Homo sapiens
[7] = HIV-1 AD8 envelope cell-cell fusion blockers – cherry-pick, dose response (AID 652062); assay type: functional, cell-based;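 also: luciferase signal from cell-cell fusion driven by HIV-1 clade B AD8 Env; potency is for inhibitors of fusion seen as a drop in luminescence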
HEK293 = assay: EBV LMP1 TES2 canonical NF-kB signalling blockers – cell-based, HEK293, luciferase, cherry-pick, dose response (AID 588343); assay type: functional; conditions: Homo sapiens
[8] = reduction of Shn3 3'UTR-driven luciferase in osteoblasts – cell-based, Clone20 osteoblasts, firefly luciferase, cherry-picked, dose response (AID 624132); assay type: functional;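 also: firefly luciferase luminescence from reporter carrying the Shn3 3'UTR in osteoblasts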
[9] = non-specific 3'UTR reporter inhibition in Clone20-Shn3RL – cell-based, Renilla luciferase, cherry-picked, counter-screen for Shn3 inhibitor project, dose response (AID 624133); assay type: functional
Vero [10] = assay: cells; assay type: functional; conditions: Chlorocebus sabaeus
[11] = loss of viability in HepG2 cells – cell-based, CellTiter-Glo, cherry-picked, cytotoxicity control for Shn3 inhibitor project, dose response (AID 624134); assay type: functional
Vero [12] = assay: cells; assay type: functional, cell-based; conditions: Chlorocebus sabaeus
[13] = NIH3T3 cell viability loss – ATP luminescence, mouse fibroblasts, counter-screen, dose response (AID 2010); assay type: functional, cell-based;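 also: cells exposed to compound for about 90 hours before reading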
Streptococcus = assay: GAS UMAA2166 growth inhibition – luminescence, BacTiterGlo, counter-screen for streptokinase expression inhibitor project, dose response (AID 1915); assay type: functional, organism-based;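 also: potency for reduction of bacterial viability or growth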
[14] = biological target: Luciferin 4-monooxygenase (Photinus pyralis, UniProt P08659); assay: inhibition of purified Photinus pyralis luciferase – biochemical, luminescence, dose response (AID 1891)
[15] = Luminescence Cell-Based Dose Confirmation HTS to Identify Inhibitors of Platelet Dense Granule Release. [Related pubchem assays: 1663 (Primary HTS), 1678 (Summary of Project)]; assay type: functional
[16] = tested on: Streptococcus sp. 'group A'; assay: Streptococcus pyogenes SK(-)GAS viability under kanamycin – luminescence, BacTiterGlo, confirmation, counter-screen for streptokinase expression inhibitor project, dose response (AID 1900); assay type: functional, organism-based
[17] = Trypanosoma cruzi growth suppression in host cells – NIH3T3 host cells, beta-gal luminescence, confirmation (AID 2044); assay type: functional, cell-based;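 also: intracellular parasites grown in NIH/3T3 mouse fibroblasts as host cells; luminescent beta-galactosidase reporter signal from transgenic T. cruzi replicating inside host cells; inhibitors lower the luminescence signal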
Streptokinase A = biological target: T2, Streptokinase A (Streptococcus pyogenes serotype M1, UniProt P10520); assay: viability-normalized secreted streptokinase activity reduction – plasminogen activation absorbance, OD405, dose response (AID 1914); assay type: functional, Streptococcus pyogenes M1 GAS;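 also: secreted streptokinase activity via plasminogen activation per viability signal from cell pellet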
T2 sequence (P10520 whole entry): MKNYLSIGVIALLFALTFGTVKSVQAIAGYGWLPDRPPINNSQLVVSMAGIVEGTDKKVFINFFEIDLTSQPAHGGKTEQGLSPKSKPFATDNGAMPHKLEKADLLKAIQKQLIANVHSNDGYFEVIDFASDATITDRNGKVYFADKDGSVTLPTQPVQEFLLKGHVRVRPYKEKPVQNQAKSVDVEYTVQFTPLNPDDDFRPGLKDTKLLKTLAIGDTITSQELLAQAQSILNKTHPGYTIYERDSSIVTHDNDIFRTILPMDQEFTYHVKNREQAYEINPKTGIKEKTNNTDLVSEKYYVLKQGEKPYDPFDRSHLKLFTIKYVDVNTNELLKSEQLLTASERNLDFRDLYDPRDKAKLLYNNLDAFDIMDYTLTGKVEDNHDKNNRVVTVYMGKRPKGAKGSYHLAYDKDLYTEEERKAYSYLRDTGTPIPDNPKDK

[18] = blockers of CRF-binding protein–CRF-R2 complex – cell-based, uHTS hits, 384-well, dose response (AID 651639); assay type: functional, Homo sapiens; conditions: read-out: IC50_Mean
[19] = biological target: T3, Corticotropin-releasing factor receptor 2/Corticotropin-releasing factor-binding protein (Homo sapiens, UniProt P24387+Q13324); assay: activators of CRF receptor 2 with binding protein – uHTS hits, confirmation (AID 602473); assay type: functional; conditions: read-out: EC50_Mean
T3 sequence (Q13324 whole entry): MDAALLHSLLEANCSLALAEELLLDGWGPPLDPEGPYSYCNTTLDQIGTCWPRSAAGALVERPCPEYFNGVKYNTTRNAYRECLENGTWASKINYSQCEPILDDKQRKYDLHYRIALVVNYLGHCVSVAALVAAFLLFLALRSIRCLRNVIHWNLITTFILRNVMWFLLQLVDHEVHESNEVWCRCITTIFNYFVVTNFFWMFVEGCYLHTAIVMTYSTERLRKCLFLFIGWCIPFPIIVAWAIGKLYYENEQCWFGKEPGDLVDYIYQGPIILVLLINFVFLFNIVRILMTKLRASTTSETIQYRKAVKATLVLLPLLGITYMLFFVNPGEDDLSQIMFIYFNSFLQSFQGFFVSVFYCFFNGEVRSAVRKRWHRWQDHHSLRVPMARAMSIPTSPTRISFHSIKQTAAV
T3 sequence (P24387 whole entry): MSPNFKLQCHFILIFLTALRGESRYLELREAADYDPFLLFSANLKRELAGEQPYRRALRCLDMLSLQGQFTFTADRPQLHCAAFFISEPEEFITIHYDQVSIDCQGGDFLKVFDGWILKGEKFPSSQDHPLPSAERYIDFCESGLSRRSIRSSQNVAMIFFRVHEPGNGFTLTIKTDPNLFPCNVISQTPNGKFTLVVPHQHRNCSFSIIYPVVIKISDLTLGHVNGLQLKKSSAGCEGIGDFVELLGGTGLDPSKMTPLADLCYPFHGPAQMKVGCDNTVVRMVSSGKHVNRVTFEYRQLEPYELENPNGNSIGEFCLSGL

[20] = biological target: T3, Corticotropin-releasing factor receptor 2/Corticotropin-releasing factor-binding protein; assay: Dose Response confirmation of uHTS hits for small molecule antagonists of the CRF-binding protein and CRF-R2 receptor complex.; assay type: functional; conditions: read-out: IC50_Mean
Fatty acid synthase [21] = biological target: T4, Fatty acid synthase (Homo sapiens, UniProt P49327); assay: inhibition of human FAS-TE enzyme activity – biochemical, kinetic fluorescence intensity, dose response (AID 624326); assay type: functional;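 also: rate of fluorescence rise from hydrolysis of a fluorogenic O-methyl fluorescein ester substrate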
Fatty acid synthase [22] = biological target: T4, Fatty acid synthase; assay: inhibition of human FAS-TE enzyme activity – biochemical, endpoint fluorescence intensity, uHTS hits, dose response (AID 624327); assay type: functional;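 also: fluorescence from hydrolysis of an O-methyl fluorescein acyl ester substrate by the enzyme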
[23] = biological target: G-protein coupled receptor 55 (Homo sapiens, UniProt Q9Y2T6); assay: inhibition of LPI-stimulated GPR55 beta-arrestin translocation – imaging, U2OS, beta-arrestin-GFP, LPI agonist, primary screen (AID 2013); assay type: functional;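 also: antagonist potency measured as reduced agonist-driven arrestin aggregation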
Chain of G-protein coupled receptor 55 (Q9Y2T6 whole entry): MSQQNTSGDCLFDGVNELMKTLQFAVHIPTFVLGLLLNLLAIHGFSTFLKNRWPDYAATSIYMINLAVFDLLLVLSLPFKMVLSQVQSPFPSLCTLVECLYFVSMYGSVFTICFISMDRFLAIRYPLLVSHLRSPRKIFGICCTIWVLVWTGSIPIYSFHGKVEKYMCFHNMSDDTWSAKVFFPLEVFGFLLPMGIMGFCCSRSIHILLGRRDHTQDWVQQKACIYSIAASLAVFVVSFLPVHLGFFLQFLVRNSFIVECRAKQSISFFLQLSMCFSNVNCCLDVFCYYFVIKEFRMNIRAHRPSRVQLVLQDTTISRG

T4 sequence (P49327 whole entry): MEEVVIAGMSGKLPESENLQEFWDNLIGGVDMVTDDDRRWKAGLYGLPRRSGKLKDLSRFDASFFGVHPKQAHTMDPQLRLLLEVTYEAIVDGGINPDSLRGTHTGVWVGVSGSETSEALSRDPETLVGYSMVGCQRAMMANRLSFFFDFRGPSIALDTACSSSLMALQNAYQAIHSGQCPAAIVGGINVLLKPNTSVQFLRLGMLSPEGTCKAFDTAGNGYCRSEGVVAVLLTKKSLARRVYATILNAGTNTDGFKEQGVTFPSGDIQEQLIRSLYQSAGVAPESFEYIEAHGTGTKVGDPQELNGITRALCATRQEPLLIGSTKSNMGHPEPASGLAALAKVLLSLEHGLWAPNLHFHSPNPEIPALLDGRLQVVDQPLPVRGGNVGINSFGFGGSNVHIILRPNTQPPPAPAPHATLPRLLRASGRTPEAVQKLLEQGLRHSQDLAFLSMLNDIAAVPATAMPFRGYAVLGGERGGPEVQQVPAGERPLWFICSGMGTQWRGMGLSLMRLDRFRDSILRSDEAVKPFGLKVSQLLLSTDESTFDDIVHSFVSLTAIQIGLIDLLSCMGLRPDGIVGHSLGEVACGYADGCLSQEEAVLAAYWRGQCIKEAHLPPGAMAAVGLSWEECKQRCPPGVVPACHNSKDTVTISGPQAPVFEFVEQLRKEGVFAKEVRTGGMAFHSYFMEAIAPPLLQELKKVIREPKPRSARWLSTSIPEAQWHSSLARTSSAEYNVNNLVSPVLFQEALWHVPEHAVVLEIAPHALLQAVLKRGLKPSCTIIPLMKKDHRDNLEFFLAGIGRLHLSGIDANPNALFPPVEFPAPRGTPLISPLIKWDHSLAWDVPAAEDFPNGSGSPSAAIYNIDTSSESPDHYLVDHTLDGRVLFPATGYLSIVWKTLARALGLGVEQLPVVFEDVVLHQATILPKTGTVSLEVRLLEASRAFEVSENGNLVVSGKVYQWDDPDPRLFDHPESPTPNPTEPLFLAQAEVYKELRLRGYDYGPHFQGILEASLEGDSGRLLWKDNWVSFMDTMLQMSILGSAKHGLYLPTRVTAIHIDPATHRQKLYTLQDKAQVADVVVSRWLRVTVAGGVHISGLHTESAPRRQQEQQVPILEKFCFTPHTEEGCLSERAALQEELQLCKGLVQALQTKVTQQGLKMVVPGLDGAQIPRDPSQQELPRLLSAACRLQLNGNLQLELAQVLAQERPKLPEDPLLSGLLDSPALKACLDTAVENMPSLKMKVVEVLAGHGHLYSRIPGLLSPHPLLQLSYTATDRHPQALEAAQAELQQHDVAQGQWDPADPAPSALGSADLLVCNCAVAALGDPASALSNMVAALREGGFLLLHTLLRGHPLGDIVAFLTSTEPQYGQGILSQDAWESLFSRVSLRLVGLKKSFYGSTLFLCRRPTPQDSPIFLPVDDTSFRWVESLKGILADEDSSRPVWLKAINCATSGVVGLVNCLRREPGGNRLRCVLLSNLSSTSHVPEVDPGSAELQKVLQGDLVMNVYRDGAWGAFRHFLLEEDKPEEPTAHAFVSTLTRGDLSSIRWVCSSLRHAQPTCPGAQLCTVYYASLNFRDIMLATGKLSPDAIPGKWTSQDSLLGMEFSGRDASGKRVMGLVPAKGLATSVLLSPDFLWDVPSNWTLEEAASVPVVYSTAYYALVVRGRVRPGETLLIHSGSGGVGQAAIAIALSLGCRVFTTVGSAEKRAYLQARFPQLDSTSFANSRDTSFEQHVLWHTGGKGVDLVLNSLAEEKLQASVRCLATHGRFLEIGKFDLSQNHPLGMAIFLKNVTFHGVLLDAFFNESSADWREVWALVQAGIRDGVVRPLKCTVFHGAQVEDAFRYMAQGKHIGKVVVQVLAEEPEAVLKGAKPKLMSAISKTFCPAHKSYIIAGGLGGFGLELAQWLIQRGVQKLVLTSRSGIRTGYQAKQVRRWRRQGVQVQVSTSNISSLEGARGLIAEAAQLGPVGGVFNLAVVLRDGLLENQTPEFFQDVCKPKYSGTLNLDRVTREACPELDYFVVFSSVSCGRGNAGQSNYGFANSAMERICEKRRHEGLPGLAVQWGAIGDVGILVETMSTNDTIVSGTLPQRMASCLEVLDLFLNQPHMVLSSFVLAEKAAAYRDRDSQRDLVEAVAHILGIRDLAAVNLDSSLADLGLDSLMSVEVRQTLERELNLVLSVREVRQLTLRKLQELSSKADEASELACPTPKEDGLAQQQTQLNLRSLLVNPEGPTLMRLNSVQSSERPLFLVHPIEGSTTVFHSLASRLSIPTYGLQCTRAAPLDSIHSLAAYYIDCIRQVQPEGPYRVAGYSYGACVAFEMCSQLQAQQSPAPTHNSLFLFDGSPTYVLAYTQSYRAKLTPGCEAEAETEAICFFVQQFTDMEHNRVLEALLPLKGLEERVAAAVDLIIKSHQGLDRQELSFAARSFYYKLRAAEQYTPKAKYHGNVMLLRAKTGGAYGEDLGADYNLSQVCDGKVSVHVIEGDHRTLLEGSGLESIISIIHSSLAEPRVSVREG
Chain of Luciferin 4-monooxygenase (P08659 whole entry): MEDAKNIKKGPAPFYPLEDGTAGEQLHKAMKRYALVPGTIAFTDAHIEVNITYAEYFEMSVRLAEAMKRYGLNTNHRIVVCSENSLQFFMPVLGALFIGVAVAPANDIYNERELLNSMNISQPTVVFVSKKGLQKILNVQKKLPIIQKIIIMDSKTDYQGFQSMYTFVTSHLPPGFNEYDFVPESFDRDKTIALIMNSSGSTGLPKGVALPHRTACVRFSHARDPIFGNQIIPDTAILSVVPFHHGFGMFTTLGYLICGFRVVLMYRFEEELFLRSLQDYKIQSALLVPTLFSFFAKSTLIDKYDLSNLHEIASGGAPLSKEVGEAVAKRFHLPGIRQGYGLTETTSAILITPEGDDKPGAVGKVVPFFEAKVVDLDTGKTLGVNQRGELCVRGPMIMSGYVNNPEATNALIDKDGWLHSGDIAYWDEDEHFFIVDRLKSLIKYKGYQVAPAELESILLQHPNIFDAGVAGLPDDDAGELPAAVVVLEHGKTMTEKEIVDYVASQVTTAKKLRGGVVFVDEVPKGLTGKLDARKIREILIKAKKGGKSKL

For COc1ccc(NN=C2C(=O)NC(=S)NC2=O)cc1, the IC50 [1] was 16.6 µM (active) and the IC50 [2] was 29.1 µM (inactive).

With CCOC(=O)c1cnc2ccc(OCC)cc2c1NCc1ccccc1OC the AC50 [3] was 25.7 µM (active), the AC50 [4] was 19.4 µM (active) and the AC50 [5] was 10.6 µM (active). The AC50 [6] was 4.51 µM (active) and the AC50 [7] was 35.4 µM (active).

With O=c1c2cnn(-c3ccccc3)c2nc(-c2cccs2)n1-c1ccc(Cl)cc1 the AC50 (HEK293) was 1.78 µM (active).

With CCC1CSC(Nc2ccc(C(=O)/C=C/c3ccc(OC)c(OC)c3)cc2)=N1 (stereo not given) the AC50 [8] was 4.47 µM (active), the AC50 [9] was 6.23 µM (active) and the CC50 (Vero [10]) was 18.1 µM (active). For the same compound, the AC50 [11] was 51.2 µM (active) and the IC50 (Vero [12]) was 23.5 µM (active).

For Oc1c(N=NC(S)=Nc2ccccc2F)c2ccccc2n1Cc1cccc(Cl)c1, the EC50 [13] was 1.71 µM (active), the EC50 (Streptococcus) was > 150 µM (not active) and the EC50 [14] was > 112 µM (not active). For the same compound, the EC50 [15] was > 112 µM (not active), the EC50 [16] was 2.69 µM (active) and the EC50 [17] was 0.676 µM (active). For the same compound, the AC50 (HEK293) was 4.15 µM (active) and the EC50 (Streptokinase A) was > 150 µM (not active).

In the case of CCCCOc1ccc(OC(=O)Nc2cc(Cl)ccc2OC)cc1, the IC50 [18] was > 20 µM (inactive), the EC50 [19] was > 53 µM (inactive) and the IC50 [20] was < 0.368 µM (active).

In the case of O=C(O)c1ccc(Cl)c(NC(=S)NC(=O)c2cccc(COc3ccccc3)c2)c1, the IC50 (Fatty acid synthase [21]) was 4.47 µM (active), the IC50 [18] was > 20 µM (inactive) and the IC50 (Fatty acid synthase [22]) was 6.11 µM (active). The EC50 [19] was > 53 µM (inactive), the IC50 [20] was < 0.368 µM (active) and the IC50 [23] was 2.3 µM (active).
